These results are taken from patent US9199946B2, “Pyrimidinone carboxamide inhibitors of endothelial lipase” (BRISTOL-MYERS SQUIBB COMPANY, priority 2012, dated 2015).

Like-named read-outs stand apart in the source and are kept apart here.

As a reminder, the IC50 is the midpoint of a concentration-inhibition curve.

In this test the target is T1, Endothelial lipase (EL) (Homo sapiens, UniProt Q9Y5X9).
T1 construct: HT-1080 cells, which were transformed by RAGE technology (Athersys) to overexpress endogenous EL; endogenous in cells; conditioned medium used as the enzyme source
T1 sequence (Q9Y5X9 21-500): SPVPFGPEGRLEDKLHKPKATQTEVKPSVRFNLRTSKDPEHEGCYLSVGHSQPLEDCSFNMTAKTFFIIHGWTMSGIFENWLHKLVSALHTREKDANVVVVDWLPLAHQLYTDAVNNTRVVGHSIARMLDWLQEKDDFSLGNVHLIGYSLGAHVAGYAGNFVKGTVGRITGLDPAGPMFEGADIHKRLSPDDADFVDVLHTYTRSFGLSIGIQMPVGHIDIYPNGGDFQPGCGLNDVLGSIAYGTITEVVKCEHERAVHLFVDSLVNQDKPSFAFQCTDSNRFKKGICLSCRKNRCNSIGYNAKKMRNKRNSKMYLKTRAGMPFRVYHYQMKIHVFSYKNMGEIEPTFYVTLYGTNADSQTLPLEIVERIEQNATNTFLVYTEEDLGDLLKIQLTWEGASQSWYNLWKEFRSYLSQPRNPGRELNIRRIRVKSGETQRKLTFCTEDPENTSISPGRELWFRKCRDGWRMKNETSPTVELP
The test can be described thus: Endothelial lipase (EL) enzymatic assay with fluorescent substrate A10070 in DMPG vesicles. The format is biochemical. A digest of the protocol: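 The enzyme source was conditioned medium from HT-1080 cells engineered to overexpress endogenous EL. It was preincubated with compound for 20 min at 37 °C in 50 mM HEPES pH 8.0, 50 mM NaCl, 1 mM CaCl2. Reactions started with DMPG vesicles carrying FRET substrate A10070 (mole fraction 0.05). The rate was taken from the linear slope of fluorescence (ex 488/em 530 nm) over 10 min.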

Setting [1] is: range observed in the EL assay, read-out: EL IC50 values.
Setting [2] is: conditioned media from HT-1080 cells overexpressing endogenous EL, 20 min preincubation at 37° C., read-out: EL IC50.

`Nc1c(C(=O)N[C@H]2C[C@@H](c3ccccc3)c3ccccc32)[nH]c(=O)[nH]c1=O` [Example 28, 5-amino-2,6-dioxo-N-((1S,3S)-3-phenyl-2,3-dihydro-1H-inden-1-yl)-1,2,3,6-tetrahydropyrimidine-4-carboxamide]: the IC50 under setting [1] is at most 10 µM.
In the case of `Nc1c(C(=O)N[C@H]2CCCc3c(OCC(F)(F)F)cccc32)[nH]c(=O)[nH]c1=O` [Example 35, (S)-5-amino-2,6-dioxo-N-(5-(2,2,2-trifluoroethoxy)-1,2,3,4-tetrahydronaphthalen-1-yl)-1,2,3,6-tetrahydropyrimidine-4-carboxamide], under setting [1], the IC50 is at most 10 µM.
Regarding `Nc1c(C(=O)N[C@@H]2CCCc3c(OCC4CCCC4)cccc32)[nH]c(=O)[nH]c1=O` [Example 113, (R)-5-amino-N-(5-(cyclopentylmethoxy)-1,2,3,4-tetrahydronaphthalen-1-yl)-2,6-dioxo-1,2,3,6-tetrahydropyrimidine-4-carboxamide], the IC50 under setting [1] is at most 10 µM.
Regarding `O=C(N[C@H]1CC[C@@H](c2ccccc2)CC1)c1[nH]c(=O)[nH]c(=O)c1NC1CCN(Cc2ccccc2)C1` (stereo partly drawn) [Example 223, 5-(1-benzylpyrrolidin-3-ylamino)-2,6-dioxo-N-(cis-4-phenylcyclohexyl)-1,2,3,6-tetrahydropyrimidine-4-carboxamide], the half-inhibitory concentration (IC50) under setting [1] was at most 10 µM.
As for `COc1ccc2c(c1OC)CCC(NC(=O)c1[nH]c(=O)[nH]c(=O)c1N)C2` (stereo not drawn) [Example 108, 5-amino-N-(5,6-dimethoxy-1,2,3,4-tetrahydronaphthalen-2-yl)-2,6-dioxo-1,2,3,6-tetrahydropyrimidine-4-carboxamide], the IC50 under setting [1] is at most 10 µM.
The same measure, in the same setting: the result for `NC(=O)c1ccc(N2CCC(NC(=O)c3[nH]c(=O)[nH]c(=O)c3N)C2)nc1` (stereo not drawn) [Example 188, 5-amino-N-(1-(5-carbamoylpyridin-2-yl)pyrrolidin-3-yl)-2,6-dioxo-1,2,3,6-tetrahydropyrimidine-4-carboxamide] reads at most 10 µM.
For `CCOC(=O)N1CCC(NC(=O)c2[nH]c(=O)[nH]c(=O)c2N)c2ccccc21` (racemic) [Example 25, ethyl 4-(5-amino-2,6-dioxo-1,2,3,6-tetrahydropyrimidine-4-carboxamido)-3,4-dihydroqiiinoline-1(2H)-carboxylate], the IC50 by setting is: under setting [2], 1.06 µM; under setting [1], at most 10 µM.
On to `Nc1c(C(=O)N[C@@H]2CCc3c(-c4ccccc4)cccc32)[nH]c(=O)[nH]c1=O` [Example 137, (R)-5-amino-2,6-dioxo-N-(4-phenyl-2,3-dihydro-1H-inden-1-yl)-1,2,3,6-tetrahydropyrimidine-4-carboxamide], for which the IC50 runs as follows: under setting [2], 0.848 µM; under setting [1], at most 10 µM.
As to `O=C(Nc1ccccc1)N[C@H]1CC[C@@H](NC(=O)c2[nH]c(=O)[nH]c(=O)c2O)CC1` [Example 280, 5-hydroxy-2,6-dioxo-N-(cis-4-(3-phenylureido)cyclohexyl)-1,2,3,6-tetrahydropyrimidine-4-carboxamide], the IC50 by setting is: under setting [2], 3.14 µM; under setting [1], at most 10 µM.
For `CCOC(=O)Cn1cc(-c2ccc([C@@H]3CC[C@H](NC(=O)c4[nH]c(=O)[nH]c(=O)c4N)C3)cc2)cn1` [Example 160, ethyl 2-(4-(4-((1R,3S)-3-(5-amino 2,6-dioxo-1,2,3,6-tetrahydropyrimidine-4-carboxamido)cyclopentyl)phenyl) 1H-pyrazol-1-yl)acetate], the concentration for half-maximal inhibition (IC50) under setting [1] was at most 10 µM.
On to `O=C(N[C@@H]1CCC[C@@H](c2ccccc2)C1)c1[nH]c(=O)[nH]c(=O)c1O` [Example 278, 5-hydroxy-2,6-dioxo-N-((1R,3R)-3-phenylcyclohexyl)-1,2,3,6-tetrahydropyrimidine-4-carboxamide], for which the IC50 under setting [1] is at most 10 µM.
Take `COc1cccc2c1CCCC2NC(=O)c1[nH]c(=O)[nH]c(=O)c1N` (single isomer, unassigned; enantiomer a) [Example 198, 5-amino-N-(5-methoxy-1,2,3,4-tetrahydronaphthalen-1-yl)-2,6-dioxo 1,2,3,6-tetrahydropyrimidine-4-carboxamide (Enantiomer A)]: the half-maximal inhibitory concentration (IC50) under setting [1] is at most 10 µM.
